What was measured:
ApoE−/− mice = test: Angiotensin II-mediated atherosclerotic plaque formation and aneurysm in ApoE−/− mice (Example 2); format: in vivo
Description: A mouse model of accelerated atherosclerosis was utilized to determine the effect of A-002 administration on atherosclerosis and aneurysm formation. ApoE^−/− mice acclimated to the same high fat diet utilized in Example 1 were administered angiotensin II with water, angiotensin with 5% acacia, or saline infusion and water twice daily for four weeks. […] At the end of the test period, plaque coverage was assessed by three independent reviewers, and their assessments were averaged to determine plaque coverage.

[1] = system: human subjects with CVD, specifically stable CAD; test: Serum lipid levels and LDL particle size in humans, A-002 once a day for eight weeks (Example 6); format: in vivo; conditions: for % change vs. baseline (mean LDL particle size) / % change vs. baseline (mean [non-HDL cholesterol]) / % change vs. baseline (mean [total cholesterol]) / % change vs. baseline (median [ApoB]) / % change vs. baseline (median [TG]) / % change vs. baseline (median [oxidized LDL]) / % change vs. baseline (median [small LDL particle]) / Change in mean LDL particle size vs. baseline / Change in mean [non-HDL cholesterol] vs. baseline / Change in mean [total cholesterol] vs. baseline / Change in median [ApoB] vs. baseline / Change in median [TG] vs. baseline / Change in median [oxidized LDL] vs. baseline / Change in median [small LDL particle] vs. baseline / % change vs. baseline (mean [LDL]) / Change in mean [LDL] vs. baseline: week 8
IL-6 = test: Serum IL-6 concentration in humans with metabolic syndrome, A-002 twice a day (Example 4); format: in vivo, human; conditions: metabolic syndrome subpopulation, week 8
Description: 204 human subjects from the United States with CVD, specifically stable coronary artery disease, were randomized to receive placebo or A-002 via oral administration twice a day over an eight week administration period at dosages of 50 mg, 100 mg, 250 mg, or 500 mg. Levels of various lipids and inflammatory markers were measured at the outset of the trial and at the end of weeks four and/or eight. For data sets with a normal distribution, mean levels of lipids or inflammatory markers were analyzed. For data sets with non-normal distribution, median levels were analyzed. […] In addition, administration of A-002 decreased median levels of CRP (Table 11).
Serum TG, CRP, and IL-6 levels were measured at eight weeks in 86 subjects from the ITT population diagnosed with metabolic syndrome.

[2] = ITT population, A-002 once a day
[3] = serum, ITT population, A-002 250 or 500 mg once a day
[4] = statin subpopulation with baseline serum LDL greater than 70 mg/dl, A-002 once a day
[5] = statin subpopulation, A-002 once a day

CCc1c(C(=O)C(N)=O)c2c(OCC(=O)OC)cccc2n1Cc1ccccc1 [A-002, [[3-(2-Amino-1,2-dioxoethyl)-2-ethyl-1-(phenylmethyl)-1H-indol-4-yl]oxy]acetic acid methyl ester]
Aneurysm rate (%) (ApoE−/− mice; angiotensin II + 5% acacia + 30 mg/kg A-002 twice daily, four weeks): 0% (0/16) | plaque content (ApoE−/− mice; angiotensin II/acacia mice, 30 mg/kg A-002 twice daily, four weeks (FIG. 4)): significantly decreased | combined effect of A-002 and statins on LDL levels versus either compound alone ([1]; A-002 once a day, expected once additional non-statin controls are obtained): synergistic decrease in LDL levels | % change vs. baseline (mean LDL particle size) [1, 2]: +0.6% | % change vs. baseline (mean [non-HDL cholesterol]) [1, 2]: −9.9% | % change vs. baseline (mean [total cholesterol]) [1, 2]: −7.3% | % change vs. baseline (median [ApoB]) [1, 2]: −11.9% | % change vs. baseline (median [TG]) [1, 2]: −9.8% | % change vs. baseline (median [oxidized LDL]) [1, 2]: −3.6% | % change vs. baseline (median [small LDL particle]) [1, 2]: −9.1% | Change in mean LDL particle size vs. baseline [1, 2]: +0.11 nm | Change in mean [non-HDL cholesterol] vs. baseline [1, 2]: -10.5 mg/dL | Change in mean [total cholesterol] vs. baseline [1, 2]: -11.5 mg/dL | Change in median [ApoB] vs. baseline [1, 2]: -8.1 mg/dL | Change in median [TG] vs. baseline [1, 2]: -13.0 mg/dL | Change in median [oxidized LDL] vs. baseline [1, 2]: −1.4 U/L | Change in median [small LDL particle] vs. baseline [1, 2]: -74.0 nmol/L | % change vs. baseline (mean [LDL]) [1, 3]: −8.3% | Change in mean [LDL] vs. baseline [1, 3]: -7.1 mg/dL | % change vs. baseline (mean LDL particle size) [1, 4]: +1.0% | % change vs. baseline (mean [LDL]) [1, 4]: −15.0% | % change vs. baseline (mean [non-HDL cholesterol]) [1, 4]: −13.7% | % change vs. baseline (mean [total cholesterol]) [1, 4]: −10.5% | % change vs. baseline (median [ApoB]) [1, 4]: −18.7% | % change vs. baseline (median [oxidized LDL]) [1, 4]: −5.6% | % change vs. baseline (median [small LDL particle]) [1, 4]: −12.3% | Change in mean LDL particle size vs. baseline [1, 4]: +0.19 nm | Change in mean [LDL] vs. baseline [1, 4]: -13.9 mg/dL | Change in mean [non-HDL cholesterol] vs. baseline [1, 4]: -16.7 mg/dL | Change in mean [total cholesterol] vs. baseline [1, 4]: -18.0 mg/dL | Change in median [ApoB] vs. baseline [1, 4]: -13.1 mg/dL | Change in median [oxidized LDL] vs. baseline [1, 4]: −2.8 U/L | Change in median [small LDL particle] vs. baseline [1, 4]: -115.0 nmol/L | % change vs. baseline (mean LDL particle size) [1, 5]: +0.5% | % change vs. baseline (mean [LDL]) [1, 5]: −8.2% | % change vs. baseline (mean [non-HDL cholesterol]) [1, 5]: −9.9% | % change vs. baseline (mean [total cholesterol]) [1, 5]: −7.3% | % change vs. baseline (median [ApoB]) [1, 5]: −11.9% | % change vs. baseline (median [TG]) [1, 5]: −10.9% | % change vs. baseline (median [oxidized LDL]) [1, 5]: −2.9% | % change vs. baseline (median [small LDL particle]) [1, 5]: −8.2% | Change in mean LDL particle size vs. baseline [1, 5]: +0.10 nm | Change in mean [LDL] vs. baseline [1, 5]: -6.7 mg/dL | Change in mean [non-HDL cholesterol] vs. baseline [1, 5]: -10.1 mg/dL | Change in mean [total cholesterol] vs. baseline [1, 5]: -11.2 mg/dL | Change in median [ApoB] vs. baseline [1, 5]: -7.9 mg/dL | Change in median [TG] vs. baseline [1, 5]: -13.0 mg/dL | Change in median [oxidized LDL] vs. baseline [1, 5]: −1.1 U/L | Change in median [small LDL particle] vs. baseline [1, 5]: -66.0 nmol/L | % change vs. baseline (mean [IL-6]) (IL-6): −4.29% | Change in mean [IL-6] vs. baseline (IL-6): -0.24 pg/mL

Reference: patent US8048880B2, “Treatment of cardiovascular disease and dyslipidemia using secretory phospholipase A2 (SPLA2) inhibitors and SPLA2 inhibitor combination therapies” (Anthera Pharmaceuticals, Inc., priority 2007, dated 2011)
